Laboratory results as given in PubChem BioAssay (NCI).
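Values below derive from 48-hour exposures of cells grown in 96-well plates, with endpoints linearly interpolated between the two concentrations bracketing the appropriate inhibition level. Abbreviation: GI50, concentration required for 50% inhibition of growth. TGI denotes the concentration required for complete inhibition of growth.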

What was measured:
Assay in all cases: growth of human tumour cells (NCI), 48 h
NCI-H23 lung = tested on: NCI-H23 lung
UACC-62 melanoma = tested on: UACC-62 melanoma
PC-3 prostate = tested on: PC-3 prostate
OVCAR-5 ovarian = tested on: OVCAR-5 ovarian
SR leukemia = tested on: SR leukemia
HOP-92 NSCLC = tested on: HOP-92 NSCLC
SF-295 CNS = tested on: SF-295 CNS
SW-620 colon = tested on: SW-620 colon
ACHN renal = tested on: ACHN renal
HCT-15 colon = tested on: HCT-15 colon

SMILES | GI50 (NCI-H23 lung) | TGI (NCI-H23 lung) | GI50 (UACC-62 melanoma) | TGI (UACC-62 melanoma) | GI50 (PC-3 prostate) | TGI (PC-3 prostate) | GI50 (OVCAR-5 ovarian) | TGI (OVCAR-5 ovarian) | GI50 (SR leukemia) | TGI (SR leukemia) | GI50 (HOP-92 NSCLC) | TGI (HOP-92 NSCLC) | GI50 (SF-295 CNS) | TGI (SF-295 CNS) | GI50 (SW-620 colon) | TGI (SW-620 colon) | GI50 (ACHN renal) | TGI (ACHN renal) | GI50 (HCT-15 colon) | TGI (HCT-15 colon)
CCS(=O)(=O)c1ccc(OC)c(Nc2ncc(-c3ccccc3Cl)o2)c1 | 7.89 µM | > 25 µM | 11.3 µM | > 25 µM | 11.4 µM | > 25 µM | 10.9 µM | > 25 µM | 15500 nM | > 25 µM | 3.29 µM | 21.1 µM | 9.43 µM | > 25 µM | 8380 nM | > 25 µM | > 19.1 µM | > 25 µM | 9.01 µM | > 25 µM
C#COc1cccc(Nc2ncnc3cc(NC(=O)[C@H](C)Cl)ccc23)c1 | 7.66 µM | > 62.5 µM | 2.96 µM | > 62.5 µM | 3.23 µM | > 62.5 µM | 3.84 µM | > 62.5 µM | 2870 nM | > 62.5 µM | > 62.5 µM | > 62.5 µM | 2.28 µM | 61.1 µM | 2580 nM | > 62.5 µM | 3.05 µM | > 62.5 µM | 2.5 µM | > 62.5 µM
COc1cc(NCCN=C(N)NC(N)=NC(C)C)c2ncccc2c1 | 3.25 µM | 15.7 µM | 18.9 µM | 94.6 µM | 8.96 µM | > 100 µM | 11.2 µM | 39.3 µM | 15000 nM | > 100 µM | 3.59 µM | 31.6 µM | > 90.9 µM | > 100 µM | 15400 nM | > 100 µM | > 100 µM | > 100 µM | > 86 µM | > 100 µM
COc1cccc2c1C(=O)OC2c1cccc2ccccc12 (stereo not given) | – | > 100 µM | – | > 100 µM | – | > 100 µM | – | > 100 µM | – | > 100 µM | – | > 100 µM | – | > 100 µM | – | > 100 µM | – | > 100 µM | – | > 100 µM
Nc1nc(N)c2cc(Sc3cccc(C(F)(F)F)c3)ccc2n1 | – | 16.4 µM | – | 5.49 µM | 0.698 µM | 14.9 µM | – | 16.3 µM | – | 4.71 µM | – | 9.54 µM | – | 8.97 µM | 267 nM | 1.57 µM | – | 14.7 µM | – | 12.7 µM
CN(C)c1ccc(/C=c2/c3ccccc3n3c2c2cc(F)ccc2[n+]3C)cc1 | 14.1 µM | 30.9 µM | – | 6.12 µM | 5.72 µM | 19.9 µM | 16.2 µM | 31.5 µM | 50.1 nM | 1.23 µM | 6.36 µM | 25.3 µM | 6.31 µM | 19.6 µM | 3170 nM | 15.2 µM | 34.6 µM | > 100 µM | 18.8 µM | > 57.6 µM
Clc1ccccc1C(Nc1ncccn1)Nc1ncccn1 | – | > 100 µM | – | > 100 µM | – | > 100 µM | – | > 100 µM | – | > 100 µM | – | > 100 µM | – | > 100 µM | – | > 100 µM | – | > 100 µM | – | > 100 µM
CCOC(=O)c1cnn2c3ccccc3n(S(=O)(=O)c3ccc(OC)cc3)c12 | 0.393 µM | > 100 µM | 0.574 µM | > 100 µM | 0.375 µM | > 100 µM | 0.558 µM | > 100 µM | 238 nM | > 100 µM | 0.67 µM | 16 µM | 0.255 µM | – | 269 nM | > 100 µM | 0.811 µM | > 100 µM | 0.119 µM | > 100 µM
O=c1cc(-c2ccccc2)oc2cc(OC/C(=N/O)c3ccc(F)cc3)ccc12 | 31.8 µM | > 50 µM | 14.8 µM | > 50 µM | 11.9 µM | 40.1 µM | > 50 µM | > 50 µM | 23000 nM | > 50 µM | 28.6 µM | > 50 µM | 8.93 µM | 24.6 µM | 48100 nM | > 50 µM | 19.2 µM | > 50 µM | 18.5 µM | > 50 µM
O=C1c2ccccc2C(=O)c2sc(Nc3ccccc3Cl)nc21 | – | 17.5 µM | – | 17.3 µM | – | 25.9 µM | – | 41 µM | – | 12.1 µM | – | 27.9 µM | – | 30.1 µM | – | 8.97 µM | – | 14.9 µM | – | 29.6 µM
COc1cccc(/C(C)=N/NC(=O)CSc2nc3ccccc3c(=O)n2CCc2ccc(S(N)(=O)=O)cc2)c1 | 2.86 µM | 8.47 µM | 8.32 µM | 33.5 µM | 3.51 µM | 22.2 µM | 3.36 µM | 21 µM | 481 nM | > 100 µM | 1.95 µM | 11.9 µM | 4.02 µM | 16.3 µM | 2770 nM | 7.5 µM | 3.19 µM | 15.9 µM | 18.4 µM | > 100 µM
CN1CCN(Cc2ccc3c(NNC(=O)c4ccccc4)nc4cc(F)ccc4n23)CC1 | 0.989 µM | 29.6 µM | 0.36 µM | 3.49 µM | 0.466 µM | > 66.7 µM | 0.735 µM | 70.2 µM | 282 nM | 15.7 µM | 1.12 µM | 41.5 µM | 0.27 µM | 4.89 µM | 519 nM | 22.4 µM | 0.0848 µM | 11.6 µM | 0.0568 µM | > 49.4 µM
Cc1ccc(-c2nc([P+](c3ccccc3)(c3ccccc3)c3ccccc3)c(Nc3ccccc3)o2)cc1 | 0.344 µM | 1.28 µM | 0.63 µM | 1.93 µM | 0.433 µM | 1.83 µM | 1.31 µM | 2.68 µM | 390 nM | 2.32 µM | 0.188 µM | 1.16 µM | 1.14 µM | 2.41 µM | 446 nM | 1.66 µM | 1.04 µM | 2.22 µM | 0.487 µM | 1.81 µM
